Measurements published in the supplement of paper PMC10307832.

Columns and labels:
Test in all cases: relative viability (nuclei count vs DMSO), 5 days (fraction); higher = more cells survive
[1] = test system: 201T
In short: (§1)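 Relative viability equals treated-well nuclei counts divided by vehicle-well nuclei counts. Counts came from 4× images of lung cancer cell lines grown in 1536-well plates for 5 days after pin-tool dosing on the day after seeding. Dosing used one drug alone or a fixed anchor-drug dose plus five library-drug doses (not always all listed) in √10 steps, and values are medians of duplicate plates.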

[2] = test system: BEN
In short: as §1

[3] = test system: CAL-12T
In short: as §1

[4] = test system: HCC-827
In short: as §1

[5] = test system: LCLC-103H
In short: as §1

[6] = test system: LCLC-97TM1
In short: as §1

[7] = test system: LXF-289
In short: as §1

[8] = test system: NCI-H1395
In short: as §1

[9] = test system: NCI-H1437
In short: as §1

[10] = test system: NCI-H1650
In short: as §1

[11] = test system: NCI-H1792
In short: as §1

[12] = test system: NCI-H1793
In short: as §1

[13] = test system: NCI-H1944
In short: as §1

[14] = test system: NCI-H2087
In short: as §1

[15] = test system: NCI-H2228
In short: as §1

[16] = test system: NCI-H2405
In short: as §1

[17] = test system: NCI-H3122
In short: as §1

[18] = test system: NCI-H322M
In short: as §1

[19] = test system: NCI-H647
In short: as §1

[20] = test system: NCI-H727
In short: as §1

[21] = test system: RERF-LC-KJ
In short: as §1

[22] = test system: SK-LU-1
In short: as §1

Structure (SMILES): Cc1sc2c(c1C)C(c1ccc(Cl)cc1)=N[C@@H](CC(=O)OC(C)(C)C)c1nnc(C)n1-2 [JQ1] + CCNC(=O)c1noc(-c2cc(C(C)C)c(O)cc2O)c1-c1ccc(CN2CCOCC2)cc1 [Luminespib] (partner 0.01 µM)
- relative viability ([1]; first compound 0.04 µM): 1.06
- relative viability ([1]; first compound 0.1265 µM): 0.77
- relative viability ([1]; first compound 0.4 µM): 0.745
- relative viability ([1]; first compound 1.265 µM): 0.753
- relative viability ([1]; first compound 4 µM): 0.522
- relative viability ([2]; first compound 0.04 µM): 0.259
- relative viability ([2]; first compound 0.1265 µM): 0.329
- relative viability ([2]; first compound 0.4 µM): 0.379
- relative viability ([2]; first compound 1.265 µM): 0.126
- relative viability ([2]; first compound 4 µM): 0.169
- relative viability ([3]; first compound 0.04 µM): 0.364
- relative viability ([3]; first compound 0.1265 µM): 0.184
- relative viability ([3]; first compound 0.4 µM): 0.367
- relative viability ([3]; first compound 1.265 µM): 0.134
- relative viability ([3]; first compound 4 µM): 0.146
- relative viability ([4]; first compound 0.04 µM): 0.887
- relative viability ([4]; first compound 0.4 µM): 0.424
- relative viability ([4]; first compound 1.265 µM): 0.624
- relative viability ([4]; first compound 4 µM): 0.59
- relative viability ([5]; first compound 0.04 µM): 0.973
- relative viability ([5]; first compound 0.1265 µM): 0.85
- relative viability ([5]; first compound 0.4 µM): 0.533
- relative viability ([5]; first compound 1.265 µM): 0.47
- relative viability ([5]; first compound 4 µM): 0.358
- relative viability ([6]; first compound 0.04 µM): 0.81
- relative viability ([6]; first compound 0.1265 µM): 0.762
- relative viability ([6]; first compound 0.4 µM): 0.768
- relative viability ([6]; first compound 1.265 µM): 0.356
- relative viability ([6]; first compound 4 µM): 0.3
- relative viability ([7]; first compound 0.04 µM): 0.675
- relative viability ([7]; first compound 0.1265 µM): 0.601
- relative viability ([7]; first compound 0.4 µM): 0.597
- relative viability ([7]; first compound 1.265 µM): 0.495
- relative viability ([7]; first compound 4 µM): 0.541
- relative viability ([8]; first compound 0.04 µM): 0.761
- relative viability ([8]; first compound 0.1265 µM): 0.681
- relative viability ([8]; first compound 0.4 µM): 0.808
- relative viability ([8]; first compound 1.265 µM): 0.399
- relative viability ([8]; first compound 4 µM): 0.458
- relative viability ([9]; first compound 0.04 µM): 1.1
- relative viability ([9]; first compound 0.1265 µM): 1.09
- relative viability ([9]; first compound 0.4 µM): 1.11
- relative viability ([9]; first compound 1.265 µM): 0.617
- relative viability ([9]; first compound 4 µM): 0.393
- relative viability ([10]; first compound 0.04 µM): 0.21
- relative viability ([10]; first compound 0.1265 µM): 0.199
- relative viability ([10]; first compound 0.4 µM): 0.167
- relative viability ([10]; first compound 1.265 µM): 0.161
- relative viability ([10]; first compound 4 µM): 0.206
- relative viability ([11]; first compound 0.04 µM): 0.522
- relative viability ([11]; first compound 0.1265 µM): 0.437
- relative viability ([11]; first compound 0.4 µM): 0.383
- relative viability ([11]; first compound 1.265 µM): 0.201
- relative viability ([11]; first compound 4 µM): 0.314
- relative viability ([12]; first compound 0.04 µM): 0.155
- relative viability ([12]; first compound 0.1265 µM): 0.209
- relative viability ([12]; first compound 0.4 µM): 0.197
- relative viability ([12]; first compound 1.265 µM): 0.318
- relative viability ([12]; first compound 4 µM): 0.253
- relative viability ([13]; first compound 0.04 µM): 0.73
- relative viability ([13]; first compound 0.1265 µM): 0.632
- relative viability ([13]; first compound 0.4 µM): 0.451
- relative viability ([13]; first compound 1.265 µM): 0.37
- relative viability ([13]; first compound 4 µM): 0.353
- relative viability ([14]; first compound 0.04 µM): 0.122
- relative viability ([14]; first compound 0.1265 µM): 0.171
- relative viability ([14]; first compound 0.4 µM): 0.173
- relative viability ([14]; first compound 1.265 µM): 0.129
- relative viability ([14]; first compound 4 µM): 0.178
- relative viability ([15]; first compound 0.04 µM): 0.148
- relative viability ([15]; first compound 0.1265 µM): 0.19
- relative viability ([15]; first compound 0.4 µM): 0.0885
- relative viability ([15]; first compound 1.265 µM): 0.112
- relative viability ([15]; first compound 4 µM): 0.103
- relative viability ([16]; first compound 0.04 µM): 0.795
- relative viability ([16]; first compound 0.1265 µM): 0.637
- relative viability ([16]; first compound 0.4 µM): 0.963
- relative viability ([16]; first compound 1.265 µM): 0.719
- relative viability ([16]; first compound 4 µM): 0.655
- relative viability ([17]; first compound 0.04 µM): 0.0811
- relative viability ([17]; first compound 0.1265 µM): 0.0744
- relative viability ([17]; first compound 0.4 µM): 0.162
- relative viability ([17]; first compound 1.265 µM): 0.0911
- relative viability ([17]; first compound 4 µM): 0.131
- relative viability ([18]; first compound 0.04 µM): 0.797
- relative viability ([18]; first compound 0.1265 µM): 0.879
- relative viability ([18]; first compound 0.4 µM): 0.599
- relative viability ([18]; first compound 1.265 µM): 0.383
- relative viability ([18]; first compound 4 µM): 0.395
- relative viability ([19]; first compound 0.04 µM): 0.239
- relative viability ([19]; first compound 0.1265 µM): 0.113
- relative viability ([19]; first compound 0.4 µM): 0.134
- relative viability ([19]; first compound 1.265 µM): 0.113
- relative viability ([19]; first compound 4 µM): 0.073
- relative viability ([20]; first compound 0.04 µM): 0.357
- relative viability ([20]; first compound 0.1265 µM): 0.423
- relative viability ([20]; first compound 0.4 µM): 0.45
- relative viability ([20]; first compound 1.265 µM): 0.35
- relative viability ([20]; first compound 4 µM): 0.346
- relative viability ([21]; first compound 0.04 µM): 1.25
- relative viability ([21]; first compound 0.1265 µM): 1.07
- relative viability ([21]; first compound 0.4 µM): 1.04
- relative viability ([21]; first compound 1.265 µM): 0.668
- relative viability ([21]; first compound 4 µM): 0.414
- relative viability ([22]; first compound 0.04 µM): 0.199
- relative viability ([22]; first compound 0.1265 µM): 0.177
- relative viability ([22]; first compound 0.4 µM): 0.171
- relative viability ([22]; first compound 1.265 µM): 0.152
- relative viability ([22]; first compound 4 µM): 0.175
